Reference: patent US5958923A, “Use of thiazole and thiadiazole compounds” (BASF Aktiengesellschaft, priority 1994, dated 1999)

Key:
human D3 receptor = target: T1, human D3 receptor (Homo sapiens, UniProt P35462); assay: D3 binding assay (125I-iodosulpiride, cloned human D3 receptor-expressing CCL 1.3 mouse fibroblasts); settings: for Ki: 0.1 nM 125 iodosulpiride, 60 min, 30° C., read-out: Receptor binding D3 125I-sulpiride Ki; for Selectivity Ki D2 /Ki D3: ratio D2 (3H-spiperone) to D3 (125I-sulpiride)
T1 construct: (Natick, Mass., USA); host or cells: CCL 1.3 mouse fibroblasts
Description: Cloned human D3 receptor-expressing CCL 1.3 mouse fibroblasts obtained from Res. Biochemicals Internat. One Strathmore Rd., Natick, Mass. 01760-2418 USA, were used for the binding studies.
The D3 -expressing cells were grown in RPMI-1640 containing 10% fetal calf serum (GIBCO No. 041-32400 N); 100 U/ml penicillin and 0.2% streptomycin (GIBCO BRL, Gaithersburg, Md., USA). After 48 h, the cells were washed with PBS and incubated with 0.05% trypsin-containing PBS for 5 min. Neutralization with medium was then carried out, and the cells were collected by centrifugation at 300×g. To lyze the cells, the pellet was briefly washed with lysis buffer (5 mM tris-HCl, pH 7.4, with 10% glycerol) and then incubated in a concentration of 10^7 cells/ml of lysis buffer at 4° C. for 30 min. The cells were centrifuged at 200×g for 10 min and the pellet was stored in liquid nitrogen.
For the D3 receptor-binding assay, the membranes were suspended in incubation buffer (50 mM tris-HCl, pH 7.4, with 120 mM NaCl, 5 mM KCl, 2 mM CaCl2, 2mM MgCl2, 10 μM quinolinol, 0.1% ascorbic acid and 0.1% BSA) in a concentration of about 10^6 cells/250 μl of assay mixture and incubated at 30° C. with 0.1 nM ^125 iodosulpiride in the presence and absence of test substance. The non-specific binding was determined using 10^-6 M spiperone.
After 60 min, the free and the bound radioligand was separated by filtration through GF/B glass fiber filters (Whatman, England) on a Skatron cell collector (Skatron, Lier, Norway), and the filters were washed with ice-cold tris-HCl buffer, pH 7.4. The radioactivity collected on the filters was quantified using a Packard 2200 CA liquid scintillation counter.
The Ki values were determined by non-linear regression analysis using the LIGAND program.

D2 receptor = target: T2, D2 receptor (Bos taurus, UniProt P20288); assay: D2 binding assay (3H-spiperone, D2low, bovine nucleus caudatus membranes); settings: 0.2 nmol/l 3H-spiperone (D2low), 25° C., 60 min
T2 construct: Nucleus caudatus was removed from bovine brain; from tissue; host or cells: bovine nucleus caudatus membranes
Description: a) Nucleus caudatus (bovine)
Nucleus caudatus was removed from bovine brain and washed with ice-cold 0.32 M sucrose solution. After determination of the weight, the material was comminuted and homogenized in 5-10 volumes of sucrose solution using a Potter-Evehjem [sic] homogenizer (500 rpm). The homogenate was centrifuged at 3,000×g for 15 minutes (4° C.), and the resulting supernatant was subjected to another 15-minute centrifugation at 40,000×g. The residue was then washed twice, by resuspension and centrifugation, with 50 mM tris-HCl, pH 7.4. The membranes were stored in liquid nitrogen until used.
a) ^3 H-Spiperone (D2low)
Nucleus caudatus membranes were taken up in incubation buffer (mM: tris-HCl 50, NaCl 120, KCl 5, MgCl2 1, CaCl2 2, pH 7.4). Various mixtures, each of 1 ml, were prepared:
Total binding: 400 μg of membranes+0.2 nmol/l ^3 H-spiperone (Du Pont de Nemours, NET-565).
Non-specific binding: as mixtures for total binding+10 μM (+)-butaclamol.
Test substance: as mixtures for total binding+increasing concentrations of test substance.
After incubation at 25° C. for 60 minutes, the mixtures were filtered through GF/B glass fibre filters (Whatman, England) on a Skatron cell collector (from Zinsser, Frankfurt), and the filters were washed with ice-cold 50 mM tris-HCl buffer, pH 7.4. The radioactivity collected on the filters was quantified using a Packard 2200 CA liquid scintillation counter.
The Ki values were determined by non-linear regression analysis using the LIGAND program or by conversion of the IC50 values using the formula of Cheng and Prusoff.

T1 sequence (P35462 whole entry): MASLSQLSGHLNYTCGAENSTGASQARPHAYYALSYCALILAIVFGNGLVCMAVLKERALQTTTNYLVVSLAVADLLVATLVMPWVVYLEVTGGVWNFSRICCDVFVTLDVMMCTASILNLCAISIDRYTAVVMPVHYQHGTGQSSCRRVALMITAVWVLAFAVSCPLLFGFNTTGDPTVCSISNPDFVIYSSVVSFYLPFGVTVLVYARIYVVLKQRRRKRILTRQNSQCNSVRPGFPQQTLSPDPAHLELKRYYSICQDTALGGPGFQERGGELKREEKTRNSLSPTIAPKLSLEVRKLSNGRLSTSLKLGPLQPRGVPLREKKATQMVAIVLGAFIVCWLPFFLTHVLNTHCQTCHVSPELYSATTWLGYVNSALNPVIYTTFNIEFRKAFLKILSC
T2 sequence (P20288 whole entry): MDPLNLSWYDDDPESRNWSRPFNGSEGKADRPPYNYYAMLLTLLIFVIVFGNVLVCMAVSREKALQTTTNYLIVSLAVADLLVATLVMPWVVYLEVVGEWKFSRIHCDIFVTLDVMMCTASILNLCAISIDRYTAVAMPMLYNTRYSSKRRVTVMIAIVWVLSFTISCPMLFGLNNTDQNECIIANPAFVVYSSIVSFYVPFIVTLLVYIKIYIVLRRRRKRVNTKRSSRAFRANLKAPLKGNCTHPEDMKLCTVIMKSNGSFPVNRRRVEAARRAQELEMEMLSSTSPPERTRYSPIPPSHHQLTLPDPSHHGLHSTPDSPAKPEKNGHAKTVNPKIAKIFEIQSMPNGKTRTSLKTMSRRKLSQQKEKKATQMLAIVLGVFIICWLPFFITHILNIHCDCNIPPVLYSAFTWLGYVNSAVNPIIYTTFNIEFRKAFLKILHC

Row | Ki (human D3 receptor) [nM] | Selectivity Ki D2 /Ki D3 (human D3 receptor) | Ki (D2 receptor) [nM] | Compound
1 | 1.4 | 46 | 65 | Nc1nnc(CCCCCCN2CCN(c3cccc(C(F)(F)F)c3)CC2)s1 [Example 2]
2 | 0.6 | 41 | 25 | Nc1nnc(SCCCN2CCN(c3cc(Cl)cc(Cl)c3)CC2)s1 [Example 13]
3 | 10.9 | 36 | 402 | CC(CSc1nnc(N)s1)CN1CCN(c2cccc(C(F)(F)F)c2)CC1 (stereo not drawn) [Example 16]
4 | 6.3 | 31 | 200 | Nc1nnc(SCCCN2CCN(c3cccc(C(F)(F)F)n3)CC2)s1 [Example 23]
5 | 6.5 | 86 | 560 | CC(C)c1cccc(N2CCN(CCCCCCCSc3nnc(N)s3)CC2)c1 [Example 49]
6 | 8.3 | 62 | 500 | N#Cc1cccc(N2CCN(CCCCCCCCSc3nnc(N)s3)CC2)c1 [Example 51]
7 | 2.95 | 50 | 145 | Nc1nnc(SCC=CCN2CCN(c3cccc(C(F)(F)F)n3)CC2)s1 [Example 53]
8 | 27 | 70 | 3500 | Cc1cc(N2CCN(CCCSc3nnc(N)s3)CC2)nc(-n2cccc2)n1 [Example 56]
9 | 1.7 | 132 | 225 | CC(C)(C)c1cc(N2CCN(CCCSc3nnc(N)s3)CC2)nc(C(C)(C)C)n1 [Example 58]
